The text below walks through data of US7112607B2, “Allosteric adenosine receptor modulators” (King Pharmaceuticals Research & Development, Inc., priority 1997, dated 2006).

The test has as its target T1, human recombinant A1 adenosine receptors (Homo sapiens, UniProt P30542).
T1 construct: expressed in transfected cells; host or cells: Chinese hamster ovary (CHO) cells, CHO:huA1, G-418 selected
T1 sequence (P30542 1-326): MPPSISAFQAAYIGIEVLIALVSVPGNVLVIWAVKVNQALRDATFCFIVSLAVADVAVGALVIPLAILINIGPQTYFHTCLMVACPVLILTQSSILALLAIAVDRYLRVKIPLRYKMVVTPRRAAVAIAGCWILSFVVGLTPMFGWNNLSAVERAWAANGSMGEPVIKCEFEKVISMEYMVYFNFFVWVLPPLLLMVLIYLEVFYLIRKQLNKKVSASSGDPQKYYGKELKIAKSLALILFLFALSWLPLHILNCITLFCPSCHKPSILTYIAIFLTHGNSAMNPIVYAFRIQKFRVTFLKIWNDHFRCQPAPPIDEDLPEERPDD
The test can be described thus: Allosteric enhancement: reduction of cAMP content of CHO:huA1 cells (radioimmunoassay). It is filed as cell-based. The settings on record: forskolin 1 μM, rolipram 20 μM, CPA 0.01 nM, adenosine deaminase, 6 min at 36° C.; for inhibition at 0.01 µM / inhibition at 0.1 µM / inhibition at 1 µM / inhibition at 10 µM: 0.1 h, read-out: Change in cAMP Content from Control (mean + SEM). As for the experimental part:
Chinese hamster ovary cells expressing human recombinant A1 adenosine receptors (CHO:huA1 cells) at a density of approximately 8000 fmol/mg protein were prepared as previously described (Kollias-Baker et al., (1997), J. Pharmacol. Exp. Ther. 281: 761–768) and aliquots of the cells at low passage numbers were frozen and stored in liquid nitrogen. When compounds were tested, an aliquot of CHO:huA1 cells were rapidly thawed after removal from liquid nitrogen, then grown in Ham's F12 culture medium with 10% fetal bovine serum and 0.5 mg/mL of antibiotic G-418 (Shryock, Ozeck, and Belardinelli (1998), Mol. Pharmacol 53: 886–893). Cells were passaged thrice weekly. Aliquots of cells were placed into 12-well plates with culture medium, serum, and antibiotic for 48 hours, by which time the cells had grown to a confluent monolayer.
Allosteric enhancement was measured as the action of a test compound at different concentrations (0.01, 0.1, 1 and 10 μM) to reduce the cAMP content of CHO:huA1 cells. To initiate an experiment, growth medium was removed from the 12-well plates and cells were washed once with warm Hanks' buffered saline. The wash solution was then removed and replaced with fresh Hanks' solution containing forskolin (1 μM), rolipram (20 μM), N^6-cyclopentyladenosine (CPA, 0.01 nM), adenosine deaminase (2 U/mL), and the test compound. Forskolin was used to stimulate the activity of adenylyl cyclase, rolipram to inhibit cAMP phosphodiesterase, adenosine deaminase to degrade endogenous adenosine, and CPA to cause a small increase of the number of activated adenosine receptors. After 6 min of incubation at 36° C. in the presence of test compound, the incubation solution was removed and hydrochloric acid (final concentration 50 mM) was added to terminate drug action.
The content of cAMP in acidified extracts of cells was determined by radioimmunoassay as previously described (Kollias-Baker et al., (1997), J. Pharmacol. Exp. Ther. 281: 761–768). Because the magnitude of the effects of allosteric enhancers on CHO:huA1 cells changed subtly with passage number and differed slightly among different aliquots of cells, the actions of the test compounds and the action of a reference compound (PD 81,723) were assessed in each experiment. The effect of each test compound on cAMP content is presented in Table 1 as a percentage of the value of cAMP content in the absence of drug (control, 100%). Each value is a mean±standard error of 6 determinations in each of the number of experiments indicated in the “n” column of the table.

Molecules are shown by their SMILES.

As to `Nc1sc2c(c1C(=O)c1ccc3ccccc3c1)CCC2` [Example 31, (2-Amino-5,6-dihydro-4H-cyclopenta[b]thiophen-3-yl)-naphthalen-2-yl-methanone], under “0.01 μM test compound”, the inhibition at 0.01 µM came out at 19 ± 3%. In addition, for the setting “0.1 μM test compound”, the inhibition at 0.1 µM was found to be 14 ± 4%. The inhibition at 1 µM (1 μM test compound) stood at 15 ± 3%. Also, the inhibition at 10 µM (10 μM test compound) is 51 ± 3%.

On to `Nc1sc2c(c1C(=O)c1ccc3ccccc3c1)CCN(Cc1ccccc1)C2` [Example 32, (2-Amino-6-benzyl-4,5,6,7-tetrahydrothieno[2,3-c]pyridin-3-yl)-naphthalen-2-yl-methanone], for which the inhibition at 0.01 µM (0.01 μM test compound) was 11 ± 4%. Also, the inhibition at 0.1 µM (0.1 μM test compound) was determined as 12 ± 3%. The inhibition at 1 µM (1 μM test compound) was 18 ± 3%. In addition, the inhibition at 10 µM (10 μM test compound) was 60 ± 4%.

Regarding `Cc1sc(N)c(C(=O)c2ccc3ccccc3c2)c1C` [Example 33, (2-Amino-4,5-dimethylthiophen-3-yl)-naphthalen-2-yl-methanone], the inhibition at 0.01 µM (0.01 μM test compound) is 1 ± 3%. Where the note is “0.1 μM test compound”, the inhibition at 0.1 µM is 4 ± 3%. Moreover, under “1 μM test compound”, the inhibition at 1 µM amounted to 8 ± 3%. Further, where the note is “10 μM test compound”, the inhibition at 10 µM was found to be 28 ± 3%.

In the case of `Cc1sc(N)c(C(=O)c2cccc(C(F)(F)F)c2)c1C` [PD 81,723, reference compound], the “Change in cAMP Content from Control (mean + SEM)” value is, setting by setting: (0.01 μM test compound) −1 ± 2%; (0.1 μM test compound) −7 ± 2%; (1 μM test compound) −13 ± 1%; (10 μM test compound) −50 ± 1%.
